The target in data set [1] is T1, microsomal triglyceride transfer protein (MTP) (Mesocricetus auratus, UniProt P55158).
T1 construct: The supernatant comprising the soluble MTP is dialysed; from tissue; host or cells: golden hamster liver microsomes, deoxycholate-solubilised supernatant
T1 sequence (P55158 19-895): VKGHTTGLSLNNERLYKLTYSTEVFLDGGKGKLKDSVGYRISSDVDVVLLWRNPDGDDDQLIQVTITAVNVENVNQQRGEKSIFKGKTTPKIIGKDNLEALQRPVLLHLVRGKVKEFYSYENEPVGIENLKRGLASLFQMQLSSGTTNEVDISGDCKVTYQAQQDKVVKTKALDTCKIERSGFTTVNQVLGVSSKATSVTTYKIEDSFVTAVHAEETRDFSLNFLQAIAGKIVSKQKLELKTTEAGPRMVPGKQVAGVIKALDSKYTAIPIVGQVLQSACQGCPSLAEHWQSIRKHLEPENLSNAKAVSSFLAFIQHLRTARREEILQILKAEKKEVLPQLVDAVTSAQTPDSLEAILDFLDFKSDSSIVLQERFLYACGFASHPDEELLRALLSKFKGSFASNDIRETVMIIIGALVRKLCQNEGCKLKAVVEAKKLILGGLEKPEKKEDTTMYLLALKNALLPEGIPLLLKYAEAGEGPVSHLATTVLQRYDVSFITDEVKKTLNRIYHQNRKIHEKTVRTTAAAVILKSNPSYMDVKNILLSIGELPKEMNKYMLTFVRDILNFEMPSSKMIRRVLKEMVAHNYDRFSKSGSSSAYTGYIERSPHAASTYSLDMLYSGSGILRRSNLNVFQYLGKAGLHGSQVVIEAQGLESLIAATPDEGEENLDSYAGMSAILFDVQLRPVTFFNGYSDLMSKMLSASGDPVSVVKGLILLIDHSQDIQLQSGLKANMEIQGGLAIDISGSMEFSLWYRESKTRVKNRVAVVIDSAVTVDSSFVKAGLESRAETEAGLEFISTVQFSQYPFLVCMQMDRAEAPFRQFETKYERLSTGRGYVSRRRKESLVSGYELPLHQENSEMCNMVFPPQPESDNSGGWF
Put plainly: Test B: qualitative analysis of the inhibition of MTP activity in vitro (labelled triglyceride transfer, SPA). The format is biochemical, golden hamster. The conditions noted are these: [3H]-triolein transfer from liposomes to LDL-biot, 18-24 hours at 37° C.; read-out: IC50 (concentration that allows a 50% inhibition of MTP). On the procedure: Qualitative Analysis of the Inhibition of Mtp Activity In Vitro
The inhibition of the activity of microsomal triglyceride transfer protein (MTP) was tested by using the following operating protocol.
The inhibition of MTP activity with a compound may be quantified by observing the inhibition of the transfer of a labelled triglyceride, from a donor particle to an acceptor particle, in the presence of MTP. The procedure for the preparation of MTP is based on the method by Wetterau and Zilversmit (Biochem. Biophys. Acta (1986) 875, 610). A few grams of golden hamster liver are taken and then rinsed several times in a 250 mM sucrose solution at 0° C. All the following steps proceed at +4° C. […]
The reaction mixture is prepared in untreated ½ well white plates (Corning Costar) by addition, in the following order, of: 5 μl of HEPES 50 mM, NaCl 150 mM, BSA 0.1% (w/v), 0.05% sodium azide (w/v), pH 7.4 buffer; 5 μl of liposomes; 5 μl of LDL-biot; 5 μl of test products in DMSO 5 μl of MTP. After incubation for 18-24 hours at 37° C., the reaction is stopped by adding 100 μl of Amersham SPA (Scintillation Proximity Assay) beads coupled to streptavidin, and the radioactivity is counted using a Top Count (Packard) machine at least one hour later. The inhibition of the transfer of the triglycerides with a compound is reflected by a reduction in the transferred radioactivity. […]

The subject of data set [2] is apoB secretion in HepG2 cells. Description: Test C: inhibition of apoB secretion in the HepG2 human cell line (sandwich ELISA). It counts as cell-based. The following applies: 24 hours incubation, read-out: IC50 (concentration that produces a 50% inhibition of apoB secretion in the HepG2 cells). On the procedure:
Qualitative Analysis of the Secretion of apoB in the HepG2 Human Cell Line
The activity of a compound may be evaluated by measuring the inhibition of apoB secretion in HepG2 cells.
The HepG2 cells (ECACC-No. 85011430) are used as model in the study of the in vitro hepatic secretion of lipoproteins, as described by Dixon J. and Ginsberg H. (J. Lipid. Res., (1993), 34, 167-179).
The HepG2 cells are cultured in Dulbecco's modified Eagle's medium comprising 10% foetal calf serum (DMEM and FBS-Gibco) in 96-well plates under an atmosphere of 5% carbon dioxide for 24 hours (about 70% confluence).
The test compounds are dissolved at a concentration of 2 or 10 mM in dimethyl sulfoxide (DMSO). Serial dilutions (1:3.16) are made in DMSO and are added (1:200—Robot Multimek Beckman) to the growth medium (200 μl) and then finally incubated for 24 hours in the various wells containing the HepG2 cells.
The 24-hour culture supernatant diluted to 1:5 (phosphate-buffered saline: PBS comprising 1% bovine serum albumin) is tested according to a sandwich-ELISA method specific for human apoB.
The results, presented in Table II below for compounds 1 and 2, are expressed in terms of IC50, i.e. the concentration that produces a 50% inhibition of apoB secretion in the HepG2 cells.

In data set [3] the test system is secretion of apoB by HepG2 cells. Put plainly: Test Avitro: kinetics (reversibility) of inhibition of secretion of apoB by HepG2 cells. It counts as cell-based, human. On the procedure: Analyse of the Kinetics (Reversibility) of Inhibition of Secretion of apoB by HepG2 Cells:
HepG2 cells are placed in contact with the products as described in the preceding paragraph and the secretion of ApoB is measured after 6 and 24 hours. The comparison is made at equipotent dose for the inhibition of secretion of apoB after 24 hours.
Next, the products are removed from the culture medium (during changes of the medium at 0, 6, 24 and 48 hours) and the secretion of ApoB is again measured to determine the kinetics for return to normal secretion. The reversibility is judged satisfactory if the secretion, 24 hours after removal of the products, has a value greater than or equal to 70% of that of the controls (blank cells without compound).

Data set [4] in a line: Test D: metabolisation/inactivation of the product in rodent liver microsomes. It counts as in vitro ADME. The conditions noted are these: 0.5 mg/ml microsomes, 10 μM test product, 1 hour at 37° C., disappearance of parent by LC/MS/MS. On the procedure: Metabolisation/Inactivation of the Product
The products are evaluated for their capacity to be inactivated rapidly in vitro. […] The incubation medium is prepared by mixing together the following constituents: NAD (1 mM), glucose 6 phosphate (5 mM), NADP (1 mM), glucose 6 phosphate dehydrogenase (1 IU/ml), bovine serum albumin (1 mg/ml), TRIS (10 mM pH=7.6), MgCl2 (5 mM).
A concentration of 0.5 mg/ml of microsomes (Biopredic) is placed in contact with 10 μM of test product. The mixture is incubated for 1 hour at 37° C. A fraction of the preparation is taken at the initial time, to which is added an equivalent volume of ethanol (quenching of the reaction by precipitation of the proteins). The same operation is repeated after 1 hour of incubation.
The samples obtained are centrifuged at 4000 rpm for 10 minutes, and the supernatant is analysed by LC/MS/MS. The percentage of disappearance of the parent product between T0 and T60 minutes is determined by calculating the areas of the chromatographic peaks.
(§1) Potential metabolites M1 and M2 (of the compounds 1 or 2, respectively) are identified, resynthesised and evaluated for their MTP-inhibiting activity.

Another data set deals with T2, MTP (Mesocricetus auratus, UniProt P55158).
T2 sequence (P55158 19-895): T1 sequence (P55158 19-895)
Put plainly: Test D: MTP-inhibiting activity of the resynthesised metabolites. The format is biochemical. The following applies: MTP-inhibiting activity of metabolites M1, M2 of the compound.
From the text: Thus, Test A may also be preceded or followed, preferably followed, by one or more tests of inhibition of MTP and/or of inhibition of the secretion of VLDLs and/or of inhibition of the secretion of apoB, which are similar or even identical to the Tests B and/or C, respectively, defined above, but performed this time on the plasmatic metabolites of the candidate compounds. These tests on the metabolites will be referred to hereinbelow as Test D (metabolites/MTP inhibition test) and Test E (metabolites/apoB inhibition test).
as §1

In data set [5] the test system is secretion of VLDL (hepatic MTP). Description: Test F: inhibition of secretion of VLDL in rats (triton technique). The format is in vivo, Male Wistar rats. The conditions noted are these: 100 mg/kg orally, between 1 hour and 6 hours after treatment, relative to controls. On the procedure: Inhibition of Secretion of VLDL in Rats:
The inhibition of hepatic MTP by compounds 1 and 2 was evaluated from their impact on the secretion of very low density lipoproteins (VLDLs). Male Wistar rats (220-280 g) receive a standard diet and water ad libitum. On the day of the experiment, the animals (n=7) are fasted and, one hour later, are treated with the compounds (100 mg/kg orally; excipient 0.5% methylcellulose). The secretion of VLDL is measured one hour after treatment, and for 5 hours, via the triton technique (WR 1339). When it is injected into the bloodstream, triton (400 mg/kg) prevents the catabolism of the VLDLs by inhibiting their lipolysis via lipoprotein lipase and by inhibiting their uptake by tissues. Measurement of the accumulation of triglycerides (TG) and of cholesterol, which is a component of VLDLs, thus makes is it possible to reveal the secretion of VLDL by the liver.
The effect of the product on the secretion of VLDL is thus evaluated between 1 hour and 6 hours after treatment at a dose of 100 mg/kg, i.e. between 0 and 5 hours after the intravenous injection of triton. Blood samples are taken at regular intervals under gaseous anaesthesia, to assay of the triglycerides and the cholesterol. […] The levels of inhibition relative to controls not treated with the compounds are determined, and the results are collated in Table V.

The next data set concerns secretion of VLDL. Description: Test Avivo: duration of action of MTP inhibitors on the secretion of VLDL. It counts as in vivo, fatty fa/fa Zucker rats. The conditions noted are these: between 6 and 8 hours after treatment. On the procedure:
Determination of the Duration of Action of MTP Inhibitors on the Secretion of VLDL
This test makes it possible to evaluate the kinetics of inhibition of MTP-inhibiting compounds on the secretion of VLDL in fatty fa/fa Zucker rats (10-12 weeks old), which is an animal model characterised by hypersecretion of VLDL. The intensity and duration of inhibition are measured via the triton technique described above over a period ranging up to 8 hours after administration of the products. Since the duration of action of a product depends both of the administered dose and on its intrinsic characteristics, it is determined at a dose of makes it possible to reach a maximum inhibition (Imax) of at least 50% over a significant time interval. The comparison of the profile of duration of action of two compounds that may have different potentials is thus performed at respective doses that allow similar Imax values to be obtained.

Consider `O=C(NC1CCN(Cc2cccnc2)CC1)c1ccccc1-c1ccc(C(F)(F)F)cc1` [Compound 1], for which the IC50 in data set [1] came to 320 nM. The IC50 in data set [2] was found to be 18 nM. Further, in data set [3], the “Secretion of apoB 24 hours after removal of the products (% of the controls)” value is listed as over 85%. In data set [4], the “Metabolisation (%/hour)” value was determined as 88 %/hour. The “Activity of the metabolites” value on MTP was “M1, M2 inactive”. In data set [5], the “Inhibition of secretion of VLDL-TG” value was −56% and the “Inhibition of secretion of VLDL-cholesterol” value is on record as −45%. Also, the “residual inhibition of VLDL secretion” value in the data set on secretion of VLDL is “absence of significant residual inhibition”.

Source of the values: patent publication US20090220421A1, “METHOD FOR SCREENING MTP-INHIBITING COMPOUNDS” (priority 2005, published 2009).
